“Also recorded” adds a separate entry of the source.
Assays:
Akt = test: Immunoblot of Akt and S6 phosphorylation in PC3 cells; type: cell-based, human; conditions: II-4 alone
Description: Western blot analysis, immunofluorescence, 1HC and TUNEL assay: For Western blot analysis, total protein lysates were subjected to SDS-PAGE and transferred to nitrocellulose. Antibodies used were: anti-Akt1, anti-Akt2, anti-Akt3, anti-total-Akt, anti-p-Akt (Ser473), anti-p-Akt (Thr308), anti-p-S6 (Ser235/236), anti-PARP and anti-cleaved caspase-3 (Cell Signaling Technology); anti-p-PRAS40 (Invitrogen); anti-p27^Kip1 (Santa Cruz Biotechnology); anti-LC3 (Novus); anti-LAMP2 and anti-Cathepsin D (BD Biosciences); and anti-GAPDH (Advanced Immunochemical Inc.). Primary antibodies were detected using IR Dye 800-conjugated (Rockland) and Alexa-Fluoro 680-conjugated (Molecular Probes) species-selective secondary antibodies. Detection and quantification were performed using an Odyssey infrared scanner (LICOR) using the manufacturer's software. For immunofluorescence staining, cells were fixed in 3% paraformaldehyde and permeabilized with 0.01% digitonin in PBS, followed by a rabbit polyclonal anti-LC3 (Abgent) primary antibody detected with a cy3-conjugated anti-rabbit secondary antibody (Jackson Immunoresearch). For IHC, formalin-fixed, paraffin-embedded specimens were collected. 5-μm-thick paraffin-embedded sections were stained using an anti-Ki-67 (MIB-1, DakoCytomation) antibody with the Dako ARK kit (Dako Corporation). Tissues were counterstained with haematoxylin, dehydrated, and mounted. In all cases, antigen retrieval was performed with the Dako Target Retrieval Kit as per manufacturer's instructions. For TUNEL assay, formalin-fixed, paraffin-embedded sections were stained using an in situ cell death detection kit (POD; Roche Diagnostic) according to the manufacturer's instructions.

PTEN−/− and PTEN+/+ MEFs = test: Viability of PTEN−/− and PTEN+/+ MEFs (PI exclusion); type: cell-based, mouse; conditions: 5 μM each, 1% FBS
Description: MEFs were treated with 5 μM each of II-4 and CQ under 1% FBS, and cell viability was determined at days 0, 2, and 3 by PI exclusion. Error bars represent SEM (n=3). (B) Mean tumor volumes of PC3 xenograft tumors treated daily with vehicle (Veh), Dox only, CQ only, or both Dox and CQ over a 28-d period. The vehicle and vehicle+CQ groups were followed for up to 18 d before terminated because of weight loss from the tumor burdens. Error bars represent SEM (n=10 tumors in each cohort). (C) Scatterplot of the tumor volumes in the Dox only and Dox+CQ groups on day 28 (P=0.05). Horizontal bars indicate mean tumor volumes. Numbers of tumors with complete remission (CR, dashed line) are indicated for each group. […]
Cell viability and cell cycle analysis. Cell number and viability was measured using trypan blue exclusion assay using a Vi-Cell Analyzer (Beckman Coulter), or labeled with 1 μg/ml PI in PBS/1% BSA followed by cytofluorometric analysis with a fluorescence-activated cell sorter (FACS) (Becton Dickinson). […] Caspase activation was analyzed using a Caspase-Glo 3/7 Assay kit (Promega). For cell cycle analysis, cells were fixed with drop-wise addition of chilled 70% ethanol, washed with PBS and resuspended in staining solution containing 50 μg/ml PI and 60 units of RNAse A. DNA content was analyzed by flow cytometry using the FlowJo and ModFit software (Becton Dickinson).

PC3 cells [1] = test: PC3 cell viability and cell death (PI exclusion, annexin V, caspase-3/7); type: cell-based, human; conditions: 4 μM II-4, 10 μM CQ, 0.5% FBS, 10 d
Description: Cell viability and cell cycle analysis. Cell number and viability was measured using trypan blue exclusion assay using a Vi-Cell Analyzer (Beckman Coulter), or labeled with 1 μg/ml PI in PBS/1% BSA followed by cytofluorometric analysis with a fluorescence-activated cell sorter (FACS) (Becton Dickinson). FITC-conjugated Annexin V was used for the assessment of phosphatidylserine exposure by FACS analysis. Caspase activation was analyzed using a Caspase-Glo 3/7 Assay kit (Promega). For cell cycle analysis, cells were fixed with drop-wise addition of chilled 70% ethanol, washed with PBS and resuspended in staining solution containing 50 μg/ml PI and 60 units of RNAse A. DNA content was analyzed by flow cytometry using the FlowJo and ModFit software (Becton Dickinson).

PC3 cells [2] = test: Mitochondrial membrane potential (MitoPT dye) in PC3 cells; type: cell-based, human; conditions: for mitochondrial membrane potential, II-4 (Akti-1/2) and CQ: 3 μM Akti-1/2, 10 μM CQ
Description: FIG. 21. […] Images at 48 h are shown. […] Merged images between red and green channels are also shown (MitoPT-M). Scale bar: 20 μm. (B) Percentage of cells showing red punctate stains and diffuse green stains from treatments described in (A). >86 cells from two random fields of fluorescent images of each treatment were counted. Error bars represent standard deviations between the two fields. […] Total fluorescence intensity from all cells was collected using the Isocyte (Blueshift Biotechnologies), a laser scanning imager. Green fluorescence intensity is collected with a 488 nm laser and a 510-540 nm band pass filter, and normalized to cell number determined by Hoechst staining using a 405 nm laser and a 430-480 nm band pass filter. Error bars, standard deviation between two independent experiments. (D) Representative images of the green ROS signals and bright field (BF) taken under a Nikon TE300 inverted microscope. […] Scale bar: 20 μm.
Cell Culture and Reagents: The PTEN^−/− and PTEN^+/+ MEFs were maintained as previously described (Sun, H., R. Lesche, D. M. Li, J. Liliental, H. Zhang, J. Gao, N. Gavrilova, B. Mueller, X. Liu, and H. Wu, (1999), PTEN modulates cell cycle progression and cell survival by regulating phosphatidylinositol 3,4,5,-trisphosphate and Akt/protein kinase B signaling pathway. Proc Natl Acad Sci USA. 96:6199-204). The PC3 and U87MG cells were maintained at 37° C. and 5% CO2 in DMEM/Ham's F-12 (1:1) containing 10% tetracycline-free fetal bovine serum. II-4 was from Calbiochem (Akt inhibitor VIII) (Barnett, S. F., D. Defeo-Jones, S. Fu, P. J. Hancock, K. M. Haskell, R. E. Jones, J. A. Kahana, A. M. Kral, K. Leander, L. L. Lee, J. Malinowski, E. M. McAvoy, D. D. Nahas, R. G. Robinson, and H. E. Huber, (2005), Identification and characterization of pleckstrin-homology-domain-dependent and isoenzyme-specific Akt inhibitors. Biochem J. 385:399-408). […] Image-iT LIVE Green Reactive Oxygen Species Detection Kit was purchased from Molecular Probes. MitoPT Mitochondria Permeability Transition Detection Kit was purchased from Immunochemistry Technologies, LLC.

Compound: O=c1[nH]c2ccccc2n1C1CCN(Cc2ccc(-c3nc4cc5nc[nH]c5cc4nc3-c3ccccc3)cc2)CC1 [II-4, 1-(1-(4-(7-phenyl-1H-imidazo[4,5-g]quinoxalin-6-yl)benzyl)piperidin-4-yl)-1H-benzo[d]imidazol-2 (3H)-one]
- phosphorylation of Akt on Ser473 and Thr308 (Akt): effectively inhibited the phosphorylation of Akt on both Ser473 and Thr308 residues
- phosphorylation of downstream target S6 (Akt): significantly reduced the phosphorylation of downstream target S6
- sensitivity of PTEN−/− vs PTEN+/+ MEFs to combined II-4 and CQ (PTEN−/− and PTEN+/+ MEFs): significantly more sensitive
- cell viability, II-4 (Akti-1/2) in combination with CQ (PC3 cells [1]): CQ accelerated cell death in combination with II-4; also recorded: rapid drop in cell viability with complete cell death observed by day 10
- cell viability, II-4 (Akti-1/2) in combination with CQ (PC3 cells [1]; listed as Akti-1/2): significantly accelerated death rate
- mitochondrial membrane potential, II-4 (Akti-1/2) and CQ (PC3 cells [2]): almost complete loss of mitochondrial potential
- mitochondrial membrane potential, II-4 (Akti-1/2) and CQ (PC3 cells [2]; listed as Akti-1/2): CQ enhanced Akti-1/2-induced mitochondria depolarization
- mitochondrial membrane potential, agent alone (PC3 cells [2]; 0.5% FBS): caused a decrease in mitochondrial membrane potential

From patent US20140004209A1, “AUTOPHAGY INDUCER AND INHIBITOR COMBINATION THERAPY FOR THE TREATMENT OF NEOPLASMS” (GENENTECH, INC., priority 2010, published 2014)
